Measurements reported in PubChem BioAssay (NCI).
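Results reflect a 48-hour exposure of cells in 96-well plates to compound at five concentrations. Abbreviation: GI50, concentration required for 50% inhibition of growth. The concentration for full growth arrest is given as TGI.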

Experiments:
Test in all cases: NCI anticancer screen, dose series, 48 h
UACC-257 melanoma = test system: UACC-257 melanoma
SF-539 CNS = test system: SF-539 CNS
OVCAR-3 ovarian = test system: OVCAR-3 ovarian
UO-31 renal = test system: UO-31 renal
U251 CNS = test system: U251 CNS
HT29 colon = test system: HT29 colon
PC-3 prostate = test system: PC-3 prostate
HL-60(TB) leukemia = test system: HL-60(TB) leukemia
SK-MEL-5 melanoma = test system: SK-MEL-5 melanoma
NCI-H460 lung = test system: NCI-H460 lung
BT-549 breast = test system: BT-549 breast
SW-620 colon = test system: SW-620 colon
SK-MEL-28 melanoma = test system: SK-MEL-28 melanoma
DU-145 prostate = test system: DU-145 prostate
SR leukemia = test system: SR leukemia
OVCAR-5 ovarian = test system: OVCAR-5 ovarian
MCF7 breast = test system: MCF7 breast
CAKI-1 renal = test system: CAKI-1 renal
A549 NSCLC = test system: A549 NSCLC
IGROV1 ovarian = test system: IGROV1 ovarian
T-47D breast = test system: T-47D breast
MDA-MB-231 breast = test system: MDA-MB-231 breast
M14 melanoma = test system: M14 melanoma
COLO 205 colon = test system: COLO 205 colon
SK-MEL-2 melanoma = test system: SK-MEL-2 melanoma
KM12 colon = test system: KM12 colon
SN12C renal = test system: SN12C renal
TK-10 renal = test system: TK-10 renal
CCRF-CEM leukemia = test system: CCRF-CEM leukemia
MALME-3M melanoma = test system: MALME-3M melanoma
NCI-H226 lung = test system: NCI-H226 lung
RPMI-8226 leukemia = test system: RPMI-8226 leukemia
OVCAR-8 ovarian = test system: OVCAR-8 ovarian
MOLT-4 leukemia = test system: MOLT-4 leukemia
HCT-116 colon = test system: HCT-116 colon
HCC-2998 colon = test system: HCC-2998 colon
K-562 leukemia = test system: K-562 leukemia
HS 578T breast = test system: HS 578T breast
SF-295 CNS = test system: SF-295 CNS
EKVX NSCLC = test system: EKVX NSCLC
UACC-62 melanoma = test system: UACC-62 melanoma
HOP-92 NSCLC = test system: HOP-92 NSCLC
SNB-19 CNS = test system: SNB-19 CNS
786-0 renal = test system: 786-0 renal
SF-268 CNS = test system: SF-268 CNS
ACHN renal = test system: ACHN renal
NCI/ADR-RES ovarian = test system: NCI/ADR-RES ovarian
A498 renal = test system: A498 renal
NCI-H522 lung = test system: NCI-H522 lung
SK-OV-3 ovarian = test system: SK-OV-3 ovarian
SNB-75 CNS = test system: SNB-75 CNS
LOX IMVI melanoma = test system: LOX IMVI melanoma
HOP-62 NSCLC = test system: HOP-62 NSCLC
NCI-H23 lung = test system: NCI-H23 lung
MDA-MB-435 = test system: MDA-MB-435
HCT-15 colon = test system: HCT-15 colon
OVCAR-4 ovarian = test system: OVCAR-4 ovarian
RXF 393 renal = test system: RXF 393 renal

## Cc1ccc(-c2cc3nc(-c4ccccc4)nc(C(Cl)Cl)n3n2)cc1
UACC-257 melanoma
  GI50: 1530 nM
  TGI: 6680 nM
SF-539 CNS
  GI50: 911 nM
  TGI: 2190 nM
OVCAR-3 ovarian
  GI50: 737 nM
  TGI: 1470 nM
UO-31 renal
  GI50: 719 nM
  TGI: 1410 nM
U251 CNS
  GI50: 419 nM
  TGI: 1600 nM
HT29 colon
  GI50: 1200 nM
  TGI: 5320 nM
PC-3 prostate
  GI50: 781 nM
  TGI: 2050 nM
HL-60(TB) leukemia
  GI50: 1390 nM
  TGI: 4060 nM
SK-MEL-5 melanoma
  GI50: > 50000 nM
  TGI: > 50000 nM
NCI-H460 lung
  GI50: 450 nM
  TGI: 1420 nM
BT-549 breast
  GI50: 15200 nM
  TGI: > 50000 nM
SW-620 colon
  GI50: 851 nM
  TGI: 2290 nM
SK-MEL-28 melanoma
  GI50: 1540 nM
  TGI: 5320 nM
DU-145 prostate
  GI50: 573 nM
  TGI: 1200 nM
SR leukemia
  GI50: 3730 nM
  TGI: > 50000 nM
OVCAR-5 ovarian
  GI50: 1190 nM
  TGI: 3310 nM
MCF7 breast
  GI50: 845 nM
  TGI: 4550 nM
CAKI-1 renal
  GI50: 668 nM
  TGI: 1330 nM
A549 NSCLC
  GI50: 927 nM
  TGI: 2630 nM
IGROV1 ovarian
  GI50: 1430 nM
  TGI: > 50000 nM
T-47D breast
  GI50: 718 nM
  TGI: 2300 nM
MDA-MB-231 breast
  GI50: 628 nM
  TGI: 1590 nM
M14 melanoma
  GI50: > 50000 nM
  TGI: > 50000 nM
COLO 205 colon
  GI50: 1060 nM
  TGI: 2340 nM
SK-MEL-2 melanoma
  GI50: 2510 nM
  TGI: 19700 nM
KM12 colon
  GI50: 701 nM
  TGI: 1960 nM
SN12C renal
  GI50: 2920 nM
  TGI: > 50000 nM
TK-10 renal
  GI50: 944 nM
  TGI: 1800 nM
CCRF-CEM leukemia
  GI50: > 50000 nM
  TGI: > 50000 nM
MALME-3M melanoma
  GI50: 36100 nM
  TGI: > 50000 nM
NCI-H226 lung
  GI50: > 50000 nM
  TGI: > 50000 nM
RPMI-8226 leukemia
  GI50: 802 nM
  TGI: 3450 nM
OVCAR-8 ovarian
  GI50: 1160 nM
  TGI: 4740 nM
MOLT-4 leukemia
  GI50: > 50000 nM
  TGI: > 50000 nM
HCT-116 colon
  GI50: 689 nM
  TGI: 1610 nM
HCC-2998 colon
  GI50: 891 nM
  TGI: 1690 nM
K-562 leukemia
  GI50: 1760 nM
  TGI: > 50000 nM
HS 578T breast
  GI50: 932 nM
  TGI: 2310 nM
SF-295 CNS
  GI50: 955 nM
  TGI: 1950 nM
EKVX NSCLC
  GI50: 752 nM
  TGI: 1510 nM
UACC-62 melanoma
  GI50: 933 nM
  TGI: 2100 nM
HOP-92 NSCLC
  GI50: 725 nM
  TGI: 1620 nM
SNB-19 CNS
  GI50: 759 nM
  TGI: 1730 nM
786-0 renal
  GI50: 1060 nM
  TGI: 2370 nM
SF-268 CNS
  GI50: 1110 nM
  TGI: 3530 nM
ACHN renal
  GI50: 737 nM
  TGI: 1410 nM
NCI/ADR-RES ovarian
  GI50: 789 nM
  TGI: 2420 nM
A498 renal
  GI50: 672 nM
  TGI: 1390 nM
NCI-H522 lung
  GI50: > 50000 nM
  TGI: > 50000 nM
SK-OV-3 ovarian
  GI50: 1520 nM
  TGI: 18600 nM
SNB-75 CNS
  GI50: 295 nM
  TGI: 1040 nM
LOX IMVI melanoma
  GI50: > 50000 nM
  TGI: > 50000 nM
HOP-62 NSCLC
  GI50: 666 nM
  TGI: 2110 nM
NCI-H23 lung
  GI50: 1950 nM
  TGI: > 50000 nM
MDA-MB-435
  GI50: 1140 nM
  TGI: 2710 nM
HCT-15 colon
  GI50: 958 nM
  TGI: 3130 nM
OVCAR-4 ovarian
  GI50: 671 nM
  TGI: 1730 nM
RXF 393 renal
  GI50: 845 nM
  TGI: 1880 nM

## O=Nc1c2cccnc2n2nnc3ccc(Cl)cc3c12
UACC-257 melanoma
  GI50: 5870 nM
  TGI: 23300 nM
SF-539 CNS
  GI50: 3680 nM
  TGI: 10500 nM
OVCAR-3 ovarian
  GI50: 447 nM
  TGI: 1450 nM
UO-31 renal
  GI50: 1050 nM
  TGI: 9510 nM
U251 CNS
  GI50: 2570 nM
  TGI: 13200 nM
HT29 colon
  GI50: 1270 nM
  TGI: 14500 nM
PC-3 prostate
  GI50: 1090 nM
  TGI: 7980 nM
HL-60(TB) leukemia
  GI50: 272 nM
  TGI: 50000 nM
SK-MEL-5 melanoma
  GI50: 5730 nM
  TGI: 14500 nM
NCI-H460 lung
  GI50: 2110 nM
  TGI: 7800 nM
BT-549 breast
  GI50: 3570 nM
  TGI: 12300 nM
SW-620 colon
  GI50: 331 nM
  TGI: 1330 nM
SK-MEL-28 melanoma
  GI50: 2390 nM
  TGI: 5360 nM
DU-145 prostate
  GI50: 893 nM
  TGI: 2930 nM
SR leukemia
  GI50: 45.8 nM
  TGI: 2990 nM
OVCAR-5 ovarian
  GI50: 3600 nM
  TGI: 14500 nM
MCF7 breast
  GI50: 792 nM
  TGI: 3390 nM
CAKI-1 renal
  GI50: 436 nM
  TGI: 2350 nM
A549 NSCLC
  GI50: 3980 nM
  TGI: 23800 nM
IGROV1 ovarian
  GI50: 1250 nM
  TGI: 7690 nM
T-47D breast
  GI50: 412 nM
  TGI: 1700 nM
MDA-MB-231 breast
  GI50: 1410 nM
  TGI: 7760 nM
M14 melanoma
  GI50: 2840 nM
  TGI: 8360 nM
COLO 205 colon
  GI50: 1320 nM
  TGI: 5070 nM
SK-MEL-2 melanoma
  GI50: 3600 nM
  TGI: 13300 nM
KM12 colon
  GI50: 1540 nM
  TGI: 4750 nM
SN12C renal
  GI50: 2060 nM
  TGI: 11700 nM
TK-10 renal
  GI50: 1660 nM
  TGI: 7600 nM
CCRF-CEM leukemia
  GI50: 45.2 nM
  TGI: 2760 nM
MALME-3M melanoma
  GI50: 1570 nM
  TGI: 4950 nM
NCI-H226 lung
  GI50: 4960 nM
  TGI: 21000 nM
RPMI-8226 leukemia
  GI50: 258 nM
  TGI: 1700 nM
OVCAR-8 ovarian
  GI50: 3740 nM
  TGI: 11200 nM
MOLT-4 leukemia
  GI50: 47.6 nM
  TGI: 1490 nM
HCT-116 colon
  GI50: 316 nM
  TGI: 6110 nM
HCC-2998 colon
  GI50: 1720 nM
  TGI: 4950 nM
K-562 leukemia
  GI50: 239 nM
  TGI: 6660 nM
HS 578T breast
  GI50: 2840 nM
  TGI: 9890 nM
SF-295 CNS
  GI50: 4240 nM
  TGI: 16200 nM
EKVX NSCLC
  GI50: 3590 nM
  TGI: 19600 nM
UACC-62 melanoma
  GI50: 3990 nM
  TGI: 11200 nM
HOP-92 NSCLC
  GI50: 99.9 nM
  TGI: 1750 nM
SNB-19 CNS
  GI50: 5500 nM
  TGI: 22000 nM
786-0 renal
  GI50: 1250 nM
  TGI: 6110 nM
SF-268 CNS
  GI50: 1800 nM
  TGI: 9400 nM
ACHN renal
  GI50: 371 nM
  TGI: 2020 nM
NCI/ADR-RES ovarian
  GI50: 1290 nM
  TGI: 7840 nM
A498 renal
  GI50: 3340 nM
  TGI: 10300 nM
NCI-H522 lung
  GI50: 1140 nM
  TGI: 3380 nM
SK-OV-3 ovarian
  GI50: 5370 nM
  TGI: 20400 nM
SNB-75 CNS
  GI50: 3190 nM
  TGI: 11400 nM
LOX IMVI melanoma
  GI50: 1350 nM
  TGI: 6190 nM
HOP-62 NSCLC
  GI50: 4640 nM
  TGI: 11400 nM
NCI-H23 lung
  GI50: 2090 nM
  TGI: 10200 nM
MDA-MB-435
  GI50: 2650 nM
  TGI: 7990 nM
HCT-15 colon
  GI50: 940 nM
  TGI: 5750 nM
OVCAR-4 ovarian
  GI50: 980 nM
  TGI: 3860 nM
RXF 393 renal
  GI50: 650 nM
  TGI: 1640 nM
